According to patent US8173673B2, “Biofilm-inhibiting effect and anti-infective activity of N,C-linked aryl isoquinolines and the use thereof” (Julius-Maximilians-Universitaet Wuerzburg, priority 2006, dated 2012):
Structures can show the parent of a compound that is named as a salt.

Experiments:
[1] = tested on: Staphylococcus aureus 325; assay: MIC, micro-bouillon-dilution method; type: cell-based; settings: Staphylococcus aureus 325, 18 hours at 37° C.
Text: (§1) Examination of the Inhibitory Effect Through Determining of the Minimal Inhibitory Concentration (MIC) in the Micro-Bouillon-Dilution Methods
(§2) In this method, a series of dilutions with decreasing concentrations of drug is produced in 96-well-microtiter plates from a stock solution of the compound. The drug-containing microtiter plate-wells are inoculated with a defined amount of the pathogen to be tested, and cultivated. The concentration of the compound in the well, where no more turbidity of the medium due to a growth of the pathogens could be optically detected is given as the MIC.
(§3) The test strains were inoculated in Luria-Bertani-medium, and grown over night in a shaking incubator at 37° C. until stationary growth phase. On the following day, the culture was diluted 1:100 with fresh Müller-Hinton-bouillon (MH-Medium) containing 5% NaCl (w/v), and until logarithmic growth phase incubated again at 37° C. inkubiert. The optical density of the bacterial suspension was photometrically measured at 550 nm, and the suspension adjusted at 2×10^5 colony forming units/ml (CFU/ml). In the meantime, a geometric series of dilutions of the test compounds was produced in MH-medium. 100 μl of each dilution were pipetted into the corresponding wells of a 96-well-polystyrene-flat bottom-microtiter plate. The plates were inoculated with 100 μl of the pre-prepared inoculum, and cultured in the incubator for 18 hours at 37° C. On the following day, the optical density of the bacterial cultures in the wells was determined with an ELISA-reader at a wavelength of 550 nm, compared to the blank value (=non-inoculated MH-medium). The concentrations of the compound in the last wells, wherein no more growth of the pathogens could be detected, is given as the MIC. A low MIC indicates a high inhibitory activity of a compound, whereas a high concentration indicates a low activity.
(§4) The MIC of, for example, A was tested for the following germs and strains: • Staphylococcus aureus 325: Biofilm-positive clinical isolate from blood culture, wild type • Staphylococcus aureus NCTC 8325: Biofilm-negative reference strain, genome published • Staphylococcus epidermidis RP62A: Biofilm-positive, multi resistant reference strain • Escherichia coli 536: urinary tract isolate, reference strain • Pseudomonas aeruginosa: environmental isolate • Candida albicans 5314: clinical isolate

[2] = tested on: Staphylococcus aureus NCTC 8325; assay: MIC, micro-bouillon-dilution method; type: cell-based; settings: Staphylococcus aureus NCTC 8325, 18 hours at 37° C.
Text: as §1, §2, §3, §4

[3] = tested on: Candida albicans 5314; assay: MIC, micro-bouillon-dilution method; type: cell-based; settings: Candida albicans 5314, 18 hours at 37° C.
Text: as §1, §2, §3, §4

[4] = tested on: Staphylococcus epidermidis RP62A; assay: MIC, micro-bouillon-dilution method; type: cell-based; settings: 18 hours at 37° C.
Text: as §1, §2, §3, §4

[5] = tested on: Escherichia coli 536; assay: MIC, micro-bouillon-dilution method; type: cell-based; settings: Escherichia coli 536, 18 hours at 37° C.
Text: as §1, §2, §3, §4

[6] = tested on: Pseudomonas aeruginosa; assay: MIC, micro-bouillon-dilution method; type: cell-based
Text: as §1, §2, §3, §4

[7] = tested on: S. epidermidis RP62A; assay: Biofilm test on polystyrene surfaces (crystal violet); type: cell-based, Staphylococcus epidermidis; settings: drug concentration of 0.63 μM
Protocol: Determination of the Formation of Biofilms of Staphylococci on Polystyrene-Surfaces (Biofilm Test)
For determining the effect of a test compound on the formation of biofilms of staphylococci, the biofilm-reference strain S. epidermidis RP62A is inoculated in trypticase-soy-broth (TSB) with a common 0.25% (w/v) glucose concentration (standard-TSB), and grown over night at 37° C. in a shaking incubator until the stationary growth phase. On the next day, the cultures are diluted 1:100 with fresh TSB, and 100 μl of this germ suspension are pipetted into the wells of a 96-well-polystyrol-tissue culture plate with flat bottom (Greiner, Nürtingen, Germany). In the meantime, also a geometric series of dilutions of the test substance is produced in TSB, and also 100 μl of each of these dilutions are added to the den germ suspensions. The plates were incubated at 37° C. in an incubator for 18 hours at 37° C. On the next day, first the growth of the cultures is checked through determining of the optical density at 550 nm by means of an ELISA-reader (see also at MIC-determination), and documented. Then, the cultures are carefully poured out of the wells, and the plates were washed three times with phosphate-buffered saline solution (PBS), in order to remove non-adherent bacteria. […] After drying, the density of the adherent biofilm is determined with an ELISA-reader at a wavelength of 490 nm.

[8] = tested on: 293 kidney epithelial cells; assay: Cytotoxicity by the Alamar-Blue assay; type: cell-based
Protocol: Determination of the Cytotoxicity by the Alamar-Blue®-Assay with the Example of Substance A
The cytotoxicity of A was determined by means of an Alamar-Blue®-assay. First, a geometric series of dilutions of A in cellular medium (293 kidney epithelial cells; without phenol red) with 1% DMSO was produced, and in a 96-well-polystyrol-flat bottom-microtiter plate vorgelegt. The cells were trypsinized, and washed once. For the test, a cellular suspension of 10^5 cells/ml was prepared, and 20 μl thereof were pipetted into the wells. The final volume was 200 μl. After 24 h incubation at 37° C. and 5% CO2, 20 μl Alamar Blue (Trinova Biochem, Gieβen, Germany) was added into each well, and the microtiter plate was incubated further. The wells that contained the medium and substance, as well as those that only contained cellular suspension (without substance), served as negative or positive control, respectively. The optical density was measured after 24 h and 48 h with an ELISA-reader at the wavelengths 550 nm and 630 nm. The IC50 value for A was calculated following linear interpolation (W. Huber, J. C. Koella Acta Tropica 1993, 55, 257-261).

COc1cc(OC)c2c(C)[n+](-c3ccc(-c4ccc(-[n+]5c(C)cc6cc(OC)cc(OC)c6c5C)cc4)cc3)c(C)cc2c1 [A, N,N′-(1,1′-benzidine)-di-(6,8-dimethoxy-1,3-dimethylisoquinolinium)-salt]
Minimal inhibitory concentrations [1]: 0.63 µM
Minimal inhibitory concentrations [2]: 5.00 µM
Minimal inhibitory concentrations [3]: 1.25 µM
Minimal inhibitory concentrations [4]: 0.63 µM
Minimal inhibitory concentrations [5]: 20.00 µM
Minimal inhibitory concentrations ([6]; Pseudomonas aeruginosa, 18 hours at 37° C.): >160 µM
growth-inhibiting effect ([6]; pseudomonades, result in words): fully ineffective
reduction of the formation of biofilms compared to a control without the substance [7]: about 90%
IC50 [8]: 42.4 µM
